Data taken from patent US20250042925A1, “Improved Compositions and Methods for Targeting Mitochondria in Cancer Cells” (The Medical College of Wisconsin, Inc., priority 2021, published 2025).

What was measured:
[1] = test system: AMP-Activated Protein Kinase (AMPK); experiment: Immunoblot of AMPK Thr172 phosphorylation; assay type: cell-based, murine; details: 0.7 μM MMe or 3 μM pCF3-MMe
Method: The functional consequence of inhibiting mitochondria complex I and subsequently OXPHOS is a reduction of overall ATP levels in the cell. The ability of MMe to reduce ATP levels was previously reported in numerous cancer cell types. Thus, further studies were conducted to explore if pCF3-MMe retained similar properties. […] Cells, including cancer cells, must maintain a high ATP:ADP ratio to maintain cellular functions and survival. Moreover, AMP levels rise whenever the ATP:ADP ratio decreases, and an increase in the AMP:ATP ratio signals an energetic crisis in the cell. […]
Cells were serum-starved for 24 hours followed by compound treatment for 24 hours before lysis in RIPA buffer composed of 50 mM Tris-HCl, pH 7.4, 150 mM NaCl, 0.25% v/v sodium deoxycholate, 1% v/v Nonidet P-40, 0.1% v/v SDS, 1 mM EDTA, 10 mM sodium orthovanadate, 40 mM 0-glycerol phosphate, 20 mM sodium fluoride, and protease inhibitors cocktail set III (Millipore Sigma, Cat #539134). […] Primary antibodies were detected by incubating with secondary horseradish peroxidase-conjugated antibody (Cytiva, Amersham ECL rabbit IgG-HRP, Cat #NA9340). Densitometric quantification of phosphorylated, total or actin protein levels was measured using chemiluminescence and calculated using Alpha View Software.

HPSC cells = experiment: TMRE retention (mitochondrial depolarization) by flow cytometry in HPSC; assay type: cell-based, human; details: HPSC cell line, 1 hour treatment
Method: (§1) AsPC-1 and HPSC cells were serum-starved overnight, loaded with tetramethylrhodamine ethyl ester (TMRE), and treated for 1 hour with the indicated concentrations of MMe or pCF3-MMe or, as the vehicle control, DMSO. Mitochondrial TMRE retention was measured by flow cytometry. Representative histograms of n=3 of TMRE fluorescence in AsPC-1 (FIG. 4A) and HPSC (FIG. 4B) in response to treatment. […] Total cellular ATP levels were analyzed using a luminescent ATP detection assay of KPC1242 cells treated with MMe (0.7 μM) or pCF3-MMe (3 μM), and changes in ATP levels were assayed (FIG. 4E). Representatives immunoblot analyses of phosphorylated and total AMPK levels (FIG. 4F) and densitometric quantification (FIG. 4G) in KPC1242 cells treated with MMe (0.7 μM) or pCF3-MMe (3 μM). […] Values are mean±SD from 3 biological replicates. Statistical differences in a, c, and e were determined using Student's t-test (*, p<0.05; **, p<0.01; ***, p<0.001, ns: not significant).
(§2) TPP-conjugated compounds are known to effectively target the mitochondria of cancer cells. Thus, the efficacy of pCF3-MMe to effectively target the mitochondria of cancer cells was tested and compared to normal cells using tetramethylrhodamine ethyl ester perchlorate (TMRE), a cell-permeant, positively-charged dye that accumulates in active mitochondria, and is released into the cytosol upon mitochondrial damage. […]

[2] = test system: pancreatic, breast, and colon cancers; details: cited from earlier work
AsPC-1 cells = experiment: TMRE retention (mitochondrial depolarization) by flow cytometry in AsPC-1; assay type: cell-based, human; details: AsPC-1, 1 hour treatment
Method: as §1, §2

[3] = test system: mitochondrial respiratory complex I; experiment: Complex I derived oxygen consumption in permeabilized cells; assay type: cell-based, murine; details: KPC1242 cell line, 24-hour treatment
Method: Cells were plated to Seahorse XF96 cell culture microplates at 20,000 cells/well. Stock compounds in DMSO were diluted in RPMI medium to a final concentration in […] volume, incubated at 37° C. for 24 hours, centrifuged at 200×g for 2 minutes, and conditioned medium removed and replaced with serum-free RPMI […]. Oxygen consumption (OCR) and extracellular flux (ECAR) were measured after injections of oligomycin (1 mg/mL), dinitrophenol […], rotenone […], and antimycin A […]. Analysis was performed by normalizing OCR and ECAR readouts to vehicle controls. Complex I and II activity were analyzed after permeabilization of the cells.

| SMILES | AMPK activation (Thr172 phosphorylation) [1] | TMRE accumulation within the mitochondria (HPSC cells) | efficacy compared to metformin [2] | TMRE accumulation within the mitochondria (AsPC-1 cells) | complex I derived OCR [3] |
| --- | --- | --- | --- | --- | --- |
| N=C(N)NC(=N)NCCCCCCCCCC[P+](c1ccccc1)(c1ccccc1)c1ccccc1.[Br-] [MMe, 10-[(carbamimidamidomethanimidoyl)amino]decyl-triphenylphosphonium bromide, reference compound] | significant increase in AMPK activation | did not affect TMRE accumulation | 100-1000 fold | significantly reduced TMRE accumulation | decreased complex I derived OCR |
| N=C(N)NC(=N)NCCCCCCCCCC[P+](c1ccc(C(F)(F)F)cc1)(c1ccc(C(F)(F)F)cc1)c1ccc(C(F)(F)F)cc1.[Br-] [pCF3-MMe, (10-(3-carbamimidoylguanidino)decyl)tris(4-(trifluoromethyl)phenyl)phosphonium bromide] | significant increase in AMPK activation | did not affect TMRE accumulation |  | significantly reduced TMRE accumulation | decreased complex I derived OCR |
